# Test results: the kinase profiling compilation of Christmann-Franck et al. (2016)
# Key:
# MAP2K5 (human) = MAP2K5 (human) (UniProt Q13163); assay: ELISA
# MAP2K4 (human) = MAP2K4 (human) (UniProt P45985); assay: ELISA
# MAP3K3 (human) = MAP3K3 (human) (UniProt Q99759); assay: ELISA
# BRAF (human) = BRAF (human) (UniProt P15056); assay: ELISA
# MAP3K2 (human) = MAP3K2 (human) (UniProt Q9Y2U5); assay: ELISA
# MAP3K11 (human) = MAP3K11 (human) (UniProt Q16584); assay: ELISA
# PLK4 (human) = PLK4 (human) (UniProt O00444); assay: ELISA
# MAP3K12 (human) = MAP3K12 (human) (UniProt Q12852); assay: ELISA
# MAP2K7 (human) = MAP2K7 (human) (UniProt O14733); assay: ELISA
# MAP2K2 (human) = MAP2K2 (human) (UniProt P36507); assay: ELISA
# RAF1 (human) = RAF1 (human) (UniProt P04049); assay: ELISA
# MAP3K5 (human) = MAP3K5 (human) (UniProt Q99683); assay: ELISA
# TTK (human) = TTK (human) (UniProt P33981); assay: ELISA
# STK11 (human) = STK11 (human) (UniProt Q15831); assay: ELISA
# LIMK1 (human) = LIMK1 (human) (UniProt P53667); assay: ELISA
# MAP2K3 (human) = MAP2K3 (human) (UniProt P46734); assay: ELISA
# BMPR1A (human) = BMPR1A (human) (UniProt P36894); assay: ELISA
# MAP3K8 (human) = MAP3K8 (human) (UniProt P41279); assay: ELISA
# MAP2K1 (human) = MAP2K1 (human) (UniProt Q02750); assay: ELISA
# MAP2K6 (human) = MAP2K6 (human) (UniProt P52564); assay: ELISA
# MAP3K4 (human) = MAP3K4 (human) (UniProt Q9Y6R4); assay: ELISA
# MOS (human) = MOS (human) (UniProt P00540); assay: ELISA
# MAP3K1 (human) = MAP3K1 (human) (UniProt Q13233); assay: ELISA
# MAP3K9 (human) = MAP3K9 (human) (UniProt P80192); assay: ELISA
# MAP3K10 (human) = MAP3K10 (human) (UniProt Q02779); assay: ELISA
# CSNK1G2 (human) = CSNK1G2 (human) (UniProt P78368); assay: Caliper, Mobility shift assay off-chip
# HIPK2 (human) = HIPK2 (human) (UniProt Q9H2X6); assay: Caliper, Mobility shift assay off-chip
# CSF1R (human) = CSF1R (human) (UniProt P07333); assay: Caliper, Mobility shift assay off-chip
# MET (human) = MET (human) (UniProt P08581); assay: Caliper, Mobility shift assay off-chip
# KIT (human) = KIT (human) (UniProt P10721); assay: Caliper, Mobility shift assay off-chip
# BMX (human) = BMX (human) (UniProt P51813); assay: Caliper, Mobility shift assay off-chip
# YES1 (human) = YES1 (human) (UniProt P07947); assay: Caliper, Mobility shift assay off-chip
# CDC42BPA (human) = CDC42BPA (human) (UniProt Q5VT25); assay: Caliper, Mobility shift assay off-chip
# MARK1 (human) = MARK1 (human) (UniProt Q9P0L2); assay: Caliper, Mobility shift assay off-chip
# EPHB3 (human) = EPHB3 (human) (UniProt P54753); assay: Caliper, Mobility shift assay off-chip
# TTK (human), sequence (P33981 whole entry, looked up): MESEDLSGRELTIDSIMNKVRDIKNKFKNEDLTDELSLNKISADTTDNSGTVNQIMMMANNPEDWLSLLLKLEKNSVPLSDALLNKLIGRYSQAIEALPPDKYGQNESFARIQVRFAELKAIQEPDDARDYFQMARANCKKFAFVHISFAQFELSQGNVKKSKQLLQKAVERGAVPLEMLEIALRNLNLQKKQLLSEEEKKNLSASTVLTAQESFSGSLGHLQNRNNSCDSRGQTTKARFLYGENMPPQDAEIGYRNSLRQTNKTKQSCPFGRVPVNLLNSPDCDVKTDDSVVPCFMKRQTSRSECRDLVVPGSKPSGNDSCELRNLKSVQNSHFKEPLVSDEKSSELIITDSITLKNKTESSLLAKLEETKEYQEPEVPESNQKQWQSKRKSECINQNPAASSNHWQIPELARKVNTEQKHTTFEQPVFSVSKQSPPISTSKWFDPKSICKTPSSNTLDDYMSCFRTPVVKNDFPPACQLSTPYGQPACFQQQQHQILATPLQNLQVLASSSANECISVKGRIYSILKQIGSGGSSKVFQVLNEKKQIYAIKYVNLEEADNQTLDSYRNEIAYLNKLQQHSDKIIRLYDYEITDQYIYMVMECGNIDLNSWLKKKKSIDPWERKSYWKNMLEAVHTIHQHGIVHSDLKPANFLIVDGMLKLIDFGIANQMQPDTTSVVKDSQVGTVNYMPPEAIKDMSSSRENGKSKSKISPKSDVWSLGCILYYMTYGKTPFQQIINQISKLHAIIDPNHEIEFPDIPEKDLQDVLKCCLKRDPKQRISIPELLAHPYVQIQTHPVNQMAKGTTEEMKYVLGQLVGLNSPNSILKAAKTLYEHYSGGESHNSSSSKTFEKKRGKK
# HIPK2 (human), sequence (Q9H2X6 whole entry, looked up): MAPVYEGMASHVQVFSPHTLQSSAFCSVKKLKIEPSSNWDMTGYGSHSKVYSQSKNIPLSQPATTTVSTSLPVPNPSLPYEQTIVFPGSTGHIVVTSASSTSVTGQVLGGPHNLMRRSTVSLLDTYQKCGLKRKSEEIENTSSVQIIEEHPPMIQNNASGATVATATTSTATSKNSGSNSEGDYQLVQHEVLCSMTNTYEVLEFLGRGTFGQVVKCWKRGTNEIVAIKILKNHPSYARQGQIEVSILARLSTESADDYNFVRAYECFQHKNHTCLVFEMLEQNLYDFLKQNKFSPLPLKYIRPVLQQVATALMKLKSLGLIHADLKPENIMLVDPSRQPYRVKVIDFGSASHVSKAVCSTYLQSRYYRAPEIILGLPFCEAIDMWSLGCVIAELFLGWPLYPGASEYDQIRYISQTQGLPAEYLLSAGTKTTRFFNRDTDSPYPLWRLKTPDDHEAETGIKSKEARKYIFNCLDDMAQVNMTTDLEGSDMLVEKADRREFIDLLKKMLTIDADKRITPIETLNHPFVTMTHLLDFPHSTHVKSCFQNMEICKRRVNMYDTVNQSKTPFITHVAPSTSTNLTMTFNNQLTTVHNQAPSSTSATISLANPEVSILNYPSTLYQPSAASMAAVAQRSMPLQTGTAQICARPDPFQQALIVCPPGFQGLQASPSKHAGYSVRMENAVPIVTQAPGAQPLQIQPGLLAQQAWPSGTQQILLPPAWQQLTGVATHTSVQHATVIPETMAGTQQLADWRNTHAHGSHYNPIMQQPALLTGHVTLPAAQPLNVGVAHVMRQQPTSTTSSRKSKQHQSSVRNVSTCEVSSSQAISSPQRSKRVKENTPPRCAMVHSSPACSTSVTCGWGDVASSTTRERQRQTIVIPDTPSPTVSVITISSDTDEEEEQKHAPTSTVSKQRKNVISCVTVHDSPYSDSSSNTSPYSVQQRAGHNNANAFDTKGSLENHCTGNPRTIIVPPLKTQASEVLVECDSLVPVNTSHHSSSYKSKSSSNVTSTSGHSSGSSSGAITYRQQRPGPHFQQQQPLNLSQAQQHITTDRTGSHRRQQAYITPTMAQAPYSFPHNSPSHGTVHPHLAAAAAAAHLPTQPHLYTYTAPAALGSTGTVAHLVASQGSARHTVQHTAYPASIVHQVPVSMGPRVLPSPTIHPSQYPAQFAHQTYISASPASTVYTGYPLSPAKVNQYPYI
# MAP3K12 (human), sequence (Q12852 whole entry, looked up): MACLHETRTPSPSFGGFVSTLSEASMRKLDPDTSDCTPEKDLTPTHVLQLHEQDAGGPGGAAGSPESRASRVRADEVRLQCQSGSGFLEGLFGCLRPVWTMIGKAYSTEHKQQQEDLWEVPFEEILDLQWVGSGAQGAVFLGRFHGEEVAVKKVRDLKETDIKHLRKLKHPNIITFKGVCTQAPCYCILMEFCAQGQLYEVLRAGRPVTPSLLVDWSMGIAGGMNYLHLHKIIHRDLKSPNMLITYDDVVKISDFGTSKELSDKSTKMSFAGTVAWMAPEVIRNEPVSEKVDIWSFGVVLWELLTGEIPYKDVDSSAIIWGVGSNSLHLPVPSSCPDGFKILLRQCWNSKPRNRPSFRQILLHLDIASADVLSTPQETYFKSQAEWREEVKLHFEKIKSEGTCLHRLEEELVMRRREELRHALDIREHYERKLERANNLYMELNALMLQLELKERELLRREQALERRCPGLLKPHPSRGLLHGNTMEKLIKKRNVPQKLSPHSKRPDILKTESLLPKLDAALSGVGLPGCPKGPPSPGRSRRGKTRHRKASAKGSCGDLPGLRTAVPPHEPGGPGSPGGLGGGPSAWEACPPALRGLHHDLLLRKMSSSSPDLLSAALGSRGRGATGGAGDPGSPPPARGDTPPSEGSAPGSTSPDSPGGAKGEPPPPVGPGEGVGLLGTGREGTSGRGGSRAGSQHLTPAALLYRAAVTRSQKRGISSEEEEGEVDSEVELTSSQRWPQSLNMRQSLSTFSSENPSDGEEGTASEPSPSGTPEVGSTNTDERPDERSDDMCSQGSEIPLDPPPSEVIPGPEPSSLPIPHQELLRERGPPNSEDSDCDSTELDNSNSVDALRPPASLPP
# STK11 (human), sequence (Q15831 whole entry, looked up): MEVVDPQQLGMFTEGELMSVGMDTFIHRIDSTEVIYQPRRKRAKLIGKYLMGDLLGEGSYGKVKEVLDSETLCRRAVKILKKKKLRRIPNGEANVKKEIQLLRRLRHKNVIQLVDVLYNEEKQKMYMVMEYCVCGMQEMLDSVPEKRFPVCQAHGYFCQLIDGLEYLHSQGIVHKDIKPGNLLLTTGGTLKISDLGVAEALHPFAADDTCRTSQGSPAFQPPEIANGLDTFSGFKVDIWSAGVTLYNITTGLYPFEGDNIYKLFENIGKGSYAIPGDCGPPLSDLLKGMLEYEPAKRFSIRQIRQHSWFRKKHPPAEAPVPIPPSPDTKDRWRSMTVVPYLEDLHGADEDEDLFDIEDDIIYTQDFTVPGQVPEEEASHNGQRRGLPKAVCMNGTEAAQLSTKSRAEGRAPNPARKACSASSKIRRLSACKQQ
# MAP2K4 (human), sequence (P45985 whole entry, looked up): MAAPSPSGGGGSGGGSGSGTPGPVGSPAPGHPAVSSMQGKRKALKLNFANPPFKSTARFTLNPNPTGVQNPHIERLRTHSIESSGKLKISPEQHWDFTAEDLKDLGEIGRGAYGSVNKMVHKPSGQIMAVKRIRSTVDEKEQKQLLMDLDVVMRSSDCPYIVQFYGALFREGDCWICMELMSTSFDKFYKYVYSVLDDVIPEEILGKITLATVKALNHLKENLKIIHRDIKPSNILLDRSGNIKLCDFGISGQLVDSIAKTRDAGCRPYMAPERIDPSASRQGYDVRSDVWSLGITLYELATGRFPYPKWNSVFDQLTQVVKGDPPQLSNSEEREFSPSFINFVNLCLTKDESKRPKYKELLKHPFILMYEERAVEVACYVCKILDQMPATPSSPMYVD
# MAP3K8 (human), sequence (P41279 whole entry, looked up): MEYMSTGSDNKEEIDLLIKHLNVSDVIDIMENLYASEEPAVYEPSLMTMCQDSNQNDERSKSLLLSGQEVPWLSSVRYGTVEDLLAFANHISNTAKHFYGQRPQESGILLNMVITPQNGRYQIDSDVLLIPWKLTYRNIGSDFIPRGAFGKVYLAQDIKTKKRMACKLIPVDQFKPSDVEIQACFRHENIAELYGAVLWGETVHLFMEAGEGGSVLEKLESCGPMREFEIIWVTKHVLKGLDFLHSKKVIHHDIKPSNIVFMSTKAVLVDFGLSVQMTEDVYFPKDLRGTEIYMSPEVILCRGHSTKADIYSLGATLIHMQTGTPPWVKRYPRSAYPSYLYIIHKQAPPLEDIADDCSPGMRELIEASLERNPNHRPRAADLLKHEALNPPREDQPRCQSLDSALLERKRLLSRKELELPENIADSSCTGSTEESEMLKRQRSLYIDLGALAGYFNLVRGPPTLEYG
# MAP3K11 (human), sequence (Q16584 whole entry, looked up): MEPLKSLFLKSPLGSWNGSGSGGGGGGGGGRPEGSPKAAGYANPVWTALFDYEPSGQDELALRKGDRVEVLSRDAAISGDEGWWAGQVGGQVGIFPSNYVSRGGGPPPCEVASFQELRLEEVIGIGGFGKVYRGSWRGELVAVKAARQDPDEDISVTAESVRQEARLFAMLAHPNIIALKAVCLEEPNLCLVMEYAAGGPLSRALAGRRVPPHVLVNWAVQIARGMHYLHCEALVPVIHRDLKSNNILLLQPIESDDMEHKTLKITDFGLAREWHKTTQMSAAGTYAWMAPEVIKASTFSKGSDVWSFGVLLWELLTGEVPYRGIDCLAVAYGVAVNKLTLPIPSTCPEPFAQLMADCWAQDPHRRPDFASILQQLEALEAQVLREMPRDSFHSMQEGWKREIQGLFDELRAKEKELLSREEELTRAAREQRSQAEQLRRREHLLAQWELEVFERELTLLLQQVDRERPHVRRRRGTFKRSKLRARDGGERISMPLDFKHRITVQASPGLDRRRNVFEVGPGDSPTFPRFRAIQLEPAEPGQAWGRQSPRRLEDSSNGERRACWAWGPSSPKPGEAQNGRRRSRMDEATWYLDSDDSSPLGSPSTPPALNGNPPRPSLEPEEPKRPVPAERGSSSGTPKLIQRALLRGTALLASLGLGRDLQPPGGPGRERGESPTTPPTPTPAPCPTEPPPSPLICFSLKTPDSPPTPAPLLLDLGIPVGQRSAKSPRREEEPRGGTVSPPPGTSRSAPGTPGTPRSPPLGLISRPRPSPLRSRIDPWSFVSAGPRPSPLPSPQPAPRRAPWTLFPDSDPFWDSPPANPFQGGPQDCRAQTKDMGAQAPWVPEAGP
structure (smiles),measurement,setting,value
COc1cc2c(Oc3ccc4[nH]c(C)cc4c3F)ncnc2cc1OCCCN1CCCC1,inhibition,MAP2K5 (human); compound 0.2 µM,-8.2%
same,inhibition,MAP2K4 (human); compound 0.02 µM,0.9%
same,inhibition,MAP2K4 (human); compound 0.2 µM,-5.2%
same,inhibition,MAP3K3 (human); compound 0.02 µM,1.2%
same,inhibition,MAP3K3 (human); compound 0.2 µM,2.9%
same,inhibition,BRAF (human); compound 0.2 µM,2%
same,inhibition,MAP3K2 (human); compound 0.02 µM,1.9%
same,inhibition,MAP3K2 (human); compound 0.2 µM,4.4%
same,inhibition,MAP3K11 (human); compound 0.02 µM,-1.7%
same,inhibition,MAP3K11 (human); compound 0.2 µM,-0.3%
same,inhibition,PLK4 (human); compound 0.02 µM,7.6%
same,inhibition,PLK4 (human); compound 0.2 µM,8.4%
same,inhibition,MAP3K12 (human); compound 0.02 µM,8.9%
same,inhibition,MAP3K12 (human); compound 0.2 µM,10.3%
same,inhibition,MAP2K7 (human); compound 0.02 µM,-6.9%
same,inhibition,MAP2K7 (human); compound 0.2 µM,-3.5%
same,inhibition,MAP2K2 (human); compound 0.02 µM,-4.9%
same,inhibition,MAP2K2 (human); compound 0.2 µM,-23%
same,inhibition,RAF1 (human); compound 0.02 µM,3.1%
same,inhibition,RAF1 (human); compound 0.2 µM,-1.7%
same,inhibition,MAP3K5 (human); compound 0.02 µM,8.7%
same,inhibition,MAP3K5 (human); compound 0.2 µM,4%
same,inhibition,TTK (human); compound 0.02 µM,-4%
same,inhibition,TTK (human); compound 0.2 µM,-2%
same,inhibition,STK11 (human); compound 0.02 µM,0.9%
same,inhibition,STK11 (human); compound 0.2 µM,19%
same,inhibition,LIMK1 (human); compound 0.02 µM,-7.3%
same,inhibition,LIMK1 (human); compound 0.2 µM,-7.8%
same,inhibition,MAP2K3 (human); compound 0.02 µM,-7.4%
same,inhibition,MAP2K3 (human); compound 0.2 µM,-2.9%
same,inhibition,BMPR1A (human); compound 0.02 µM,8.3%
same,inhibition,BMPR1A (human); compound 0.2 µM,-7.9%
same,inhibition,MAP3K8 (human); compound 0.02 µM,-3.2%
same,inhibition,MAP3K8 (human); compound 0.2 µM,-1%
same,inhibition,MAP2K1 (human); compound 0.02 µM,-0.6%
same,inhibition,MAP2K1 (human); compound 0.2 µM,-2.4%
same,inhibition,MAP2K6 (human); compound 0.02 µM,2.8%
same,inhibition,MAP2K6 (human); compound 0.2 µM,-5%
same,inhibition,MAP3K4 (human); compound 0.02 µM,-1.7%
same,inhibition,MAP3K4 (human); compound 0.2 µM,-6.3%
same,inhibition,MOS (human); compound 0.02 µM,4.2%
same,inhibition,MOS (human); compound 0.2 µM,3.7%
same,inhibition,MAP3K1 (human); compound 0.02 µM,1.2%
same,inhibition,MAP3K1 (human); compound 0.2 µM,-1%
same,inhibition,MAP3K9 (human); compound 0.02 µM,4.9%
same,inhibition,MAP3K9 (human); compound 0.2 µM,10.5%
same,inhibition,MAP3K10 (human); compound 0.02 µM,3.6%
same,inhibition,MAP3K10 (human); compound 0.2 µM,6%
same,inhibition,CSNK1G2 (human); compound 0.02 µM,-0.7%
same,inhibition,CSNK1G2 (human); compound 0.2 µM,-2.1%
same,inhibition,HIPK2 (human); compound 0.02 µM,-1.7%
same,inhibition,HIPK2 (human); compound 0.2 µM,0.7%
same,inhibition,CSF1R (human); compound 0.02 µM,18.4%
same,inhibition,CSF1R (human); compound 0.2 µM,36.8%
same,inhibition,MET (human); compound 0.02 µM,1%
same,inhibition,MET (human); compound 0.2 µM,6%
same,inhibition,KIT (human); compound 0.02 µM,64.1%
same,inhibition,KIT (human); compound 0.2 µM,71.4%
same,inhibition,BMX (human); compound 0.02 µM,8.4%
same,inhibition,BMX (human); compound 0.2 µM,7.1%
same,inhibition,YES1 (human); compound 0.02 µM,26.9%
same,inhibition,YES1 (human); compound 0.2 µM,73.7%
same,inhibition,CDC42BPA (human); compound 0.02 µM,3.4%
same,inhibition,CDC42BPA (human); compound 0.2 µM,14.9%
same,inhibition,MARK1 (human); compound 0.02 µM,-2.2%
same,inhibition,MARK1 (human); compound 0.2 µM,2.7%
same,inhibition,EPHB3 (human); compound 0.02 µM,-2.6%
same,inhibition,EPHB3 (human); compound 0.2 µM,-1.3%
CNC(=O)c1ccccc1Sc1ccc2c(/C=C/c3ccccn3)n[nH]c2c1,inhibition,MAP2K5 (human); compound 0.001 µM,-15.6%
same,inhibition,MAP2K5 (human); compound 0.02 µM,-11.8%
same,inhibition,MAP2K4 (human); compound 0.001 µM,-0.4%
same,inhibition,MAP2K4 (human); compound 0.02 µM,-5.7%
same,inhibition,MAP3K3 (human); compound 0.001 µM,6.6%
same,inhibition,MAP3K3 (human); compound 0.02 µM,0.5%
same,inhibition,BRAF (human); compound 0.001 µM,-1.8%
same,inhibition,BRAF (human); compound 0.02 µM,-4.5%
same,inhibition,MAP3K2 (human); compound 0.001 µM,-0.4%
same,inhibition,MAP3K2 (human); compound 0.02 µM,1.9%
same,inhibition,MAP3K11 (human); compound 0.001 µM,-5.9%
same,inhibition,MAP3K11 (human); compound 0.02 µM,-7.1%
same,inhibition,PLK4 (human); compound 0.001 µM,23.3%
same,inhibition,PLK4 (human); compound 0.02 µM,48.9%
same,inhibition,MAP3K12 (human); compound 0.001 µM,6.6%
same,inhibition,MAP3K12 (human); compound 0.02 µM,4.3%
same,inhibition,MAP2K7 (human); compound 0.001 µM,-1.2%
same,inhibition,MAP2K7 (human); compound 0.02 µM,-3.4%
same,inhibition,MAP2K2 (human); compound 0.001 µM,-7.9%
same,inhibition,MAP2K2 (human); compound 0.02 µM,0.1%
same,inhibition,RAF1 (human); compound 0.001 µM,0.9%
same,inhibition,RAF1 (human); compound 0.02 µM,-3%
same,inhibition,MAP3K5 (human); compound 0.001 µM,-2%
same,inhibition,MAP3K5 (human); compound 0.02 µM,-2.8%
same,inhibition,TTK (human); compound 0.001 µM,-2.7%
same,inhibition,TTK (human); compound 0.02 µM,-3.2%
same,inhibition,STK11 (human); compound 0.001 µM,1.9%
same,inhibition,STK11 (human); compound 0.02 µM,0.2%
same,inhibition,LIMK1 (human); compound 0.001 µM,1.5%
same,inhibition,LIMK1 (human); compound 0.02 µM,-2.6%
same,inhibition,MAP2K3 (human); compound 0.001 µM,-2.7%
same,inhibition,MAP2K3 (human); compound 0.02 µM,-2.2%
same,inhibition,BMPR1A (human); compound 0.001 µM,-0.4%
same,inhibition,BMPR1A (human); compound 0.02 µM,1.1%
same,inhibition,MAP3K8 (human); compound 0.001 µM,-5.7%
same,inhibition,MAP3K8 (human); compound 0.02 µM,-0.7%
same,inhibition,MAP2K1 (human); compound 0.001 µM,4.3%
same,inhibition,MAP2K1 (human); compound 0.02 µM,-1.3%
same,inhibition,MAP2K6 (human); compound 0.001 µM,3.2%
same,inhibition,MAP2K6 (human); compound 0.02 µM,2.3%
same,inhibition,MAP3K4 (human); compound 0.001 µM,-7.9%
same,inhibition,MAP3K4 (human); compound 0.02 µM,-1.7%
same,inhibition,MOS (human); compound 0.001 µM,-7.5%
same,inhibition,MOS (human); compound 0.02 µM,-15.4%
same,inhibition,MAP3K1 (human); compound 0.001 µM,-3.7%
same,inhibition,MAP3K1 (human); compound 0.02 µM,-3.5%
same,inhibition,MAP3K9 (human); compound 0.001 µM,1.1%
same,inhibition,MAP3K9 (human); compound 0.02 µM,0.1%
same,inhibition,MAP3K10 (human); compound 0.001 µM,4.4%
same,inhibition,MAP3K10 (human); compound 0.02 µM,2.7%
same,inhibition,CSNK1G2 (human); compound 0.001 µM,-2.9%
same,inhibition,CSNK1G2 (human); compound 0.02 µM,-1.6%
same,inhibition,HIPK2 (human); compound 0.001 µM,-4.6%
same,inhibition,HIPK2 (human); compound 0.02 µM,-0.1%
same,inhibition,CSF1R (human); compound 0.001 µM,13.2%
same,inhibition,CSF1R (human); compound 0.02 µM,22.8%
same,inhibition,MET (human); compound 0.001 µM,-2.4%
same,inhibition,KIT (human); compound 0.001 µM,37.8%
same,inhibition,KIT (human); compound 0.02 µM,70.5%
same,inhibition,BMX (human); compound 0.001 µM,7.1%
same,inhibition,BMX (human); compound 0.02 µM,4.9%
same,inhibition,YES1 (human); compound 0.001 µM,5.9%
same,inhibition,CDC42BPA (human); compound 0.001 µM,4.2%
same,inhibition,CDC42BPA (human); compound 0.02 µM,10.2%
same,inhibition,MARK1 (human); compound 0.001 µM,-3.2%
same,inhibition,EPHB3 (human); compound 0.001 µM,-8%
same,inhibition,EPHB3 (human); compound 0.02 µM,-4.7%
